Results on 11 compounds are retold here after patent US6632794B1, “Insulin-like growth factor agonist molecules” (Genentech, Inc., priority 1997, dated 2003).

Where two headings read alike, the source gives them in different places. Starred links: 1 amine or outer side, 2 acyl side, 3 side chain; linkers in the order of their positions; H or OH if unused. Positions of bridges follow the written chain, without caps; N, C: chain ends. Residues, ends and D or L forms follow the SMILES beside them. Suc = O=C(CCC(=O)[*:2])[*:1]

The target in this assay is IGFBP-3 (Homo sapiens, UniProt P17936). Put plainly: BIAcore competition assay, IGFBP-3 binding to immobilized IGF-I. The note with it: for IGF-I Inhibition IC50 (mut)/IC50 (wt): bp3-01-ox variants by BIAcore, wt = bp3-01-ox. On the procedure: A. BIAcore™ Competition Assay (for IGFBP-3 Binders)
IGF-I was immobilized on a dextran chip for inhibition assays using a BIAcore™ 2000 surface-plasmon-resonance device (BIAcore, Inc., Piscataway, N.J.) to measure free binding protein. […] Serial dilutions of peptide were mixed with a constant concentration (40 nM) of IGFBP-3. After incubation for >1 hour at room temperature, an aliquot of 20 μL was injected at a flow rate of 20 μL/min over the IGF-I chip. Following the injection, a response reading was taken to measure the relative amount of IGFBP-3 bound to the IGF-I.
(In general: In SPR one partner is held on a chip, and binding of the other changes the refractive index at the surface.)

Where [1] appears, read: bp3-01-ox variants by BIAcore competition assay, read-out: IGF-I Inhibition IC50.
Where [2] appears, read: 40 nM IGFBP-3, 400 to 800 RU immobilized IGF-I, read-out: BIAcore Assay IC50, inhibition of IGF-I binding to IGFBP-3.

IGFBP-3, sequence (P17936 28-291): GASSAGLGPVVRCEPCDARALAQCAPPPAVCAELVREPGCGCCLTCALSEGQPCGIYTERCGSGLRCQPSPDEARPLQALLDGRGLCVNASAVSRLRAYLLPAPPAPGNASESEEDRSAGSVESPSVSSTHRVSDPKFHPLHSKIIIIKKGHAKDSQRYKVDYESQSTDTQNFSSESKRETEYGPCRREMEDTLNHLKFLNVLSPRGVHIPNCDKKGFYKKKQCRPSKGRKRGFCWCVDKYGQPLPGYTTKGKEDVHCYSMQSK

Usually IC50 stands for the concentration that gives 50% inhibition. Take `CC(C)C[C@@H]1NC(=O)[C@H](Cc2ccc(O)cc2)NC(=O)[C@H](Cc2c[nH]c3ccccc23)NC(=O)[C@H](CCC(=O)O)NC(=O)[C@H](C)NC(=O)[C@H](C(C)C)NC(=O)[C@@H]2CCCN2C(=O)[C@H](Cc2c[nH]c3ccccc23)NC(=O)[C@@H](NC(=O)[C@@H](NC(=O)[C@H](CCC(=O)O)NC(=O)[C@@H]2CCCN2C(=O)CN)[C@@H](C)O)CSSC[C@@H](C(=O)N[C@@H](CC(N)=O)C(=O)O)NC1=O` [bp3-41] (H-GPETCWPVAEWYLCN-OH; disulfide 5-14; N-terminus and C-terminus assumed): the “IGF-I Inhibition IC50 (mut)/IC50 (wt)” value was 2.0. Under setting [1], the IC50 amounted to 4 µM.
`CC(C)C[C@H](NC(=O)[C@@H](NC(=O)[C@H](Cc1ccc(O)cc1)NC(=O)[C@@H]1CSSC[C@H](NC(=O)[C@@H](NC(=O)[C@@H](NC(=O)[C@H](CCCCN)NC(=O)[C@H](Cc2ccccc2)NC(=O)[C@@H](N)Cc2c[nH]c3ccccc23)[C@@H](C)O)C(C)C)C(=O)N[C@@H](Cc2ccc(O)cc2)C(=O)N[C@@H](CCC(=O)O)C(=O)N[C@@H](Cc2c[nH]c3ccccc23)C(=O)N[C@@H](CCC(=O)O)C(=O)N[C@@H](CC(=O)O)C(=O)N[C@@H](CCC(=O)O)C(=O)N[C@@H](C(C)C)C(=O)N[C@@H](CCC(N)=O)C(=O)N1)[C@@H](C)O)C(=O)N[C@@H](CCC(=O)O)C(=O)N[C@@H](CCC(=O)O)C(=O)NCC(N)=O` [BP3-24] (H-WFKTVCYEWEDEVQCYTLEEG-NH2; disulfide 6-15): under setting [2], the IC50 lay within 100 to 300 µM.
On the same count and under the same terms, the figure for `CC[C@H](C)[C@@H]1NC(=O)[C@H](C(C)C)NC(=O)[C@H](Cc2ccc(O)cc2)NC(=O)CNC(=O)[C@@H]2CCCN2C(=O)CNC(=O)[C@H](CCC(=O)O)NC(=O)[C@H](Cc2ccccc2)NC(=O)[C@@H](NC(=O)[C@H](CCC(=O)O)NC(=O)[C@H](CO)NC(=O)[C@H](CCC(=O)O)NC(=O)[C@@H](N)CCC(=O)O)CSSC[C@@H](C(=O)NCC(=O)N[C@@H](CC(C)C)C(=O)N[C@H](C(=O)NCC(=O)O)C(C)C)NC1=O` [BP3-4B3.3] (H-EESECFEGPGYVICGLVG-OH; disulfide 5-14; N-terminus and C-terminus assumed) is 80 µM.
For the compound `CC(C)C[C@@H]1NC(=O)[C@H](Cc2ccc(O)cc2)NC(=O)[C@H](Cc2c[nH]c3ccccc23)NC(=O)[C@H](CCC(=O)O)NC(=O)[C@H](C)NC(=O)[C@H](C(C)C)NC(=O)[C@@H]2CCCN2C(=O)[C@H](Cc2c[nH]c3ccccc23)NC(=O)[C@@H](NC(=O)[C@@H](NC(=O)[C@H](CCC(=O)O)NC(=O)[C@H](CCC(=O)O)NC(=O)[C@@H](N)CO)C(C)C)CSSC[C@@H](C(=O)N[C@@H](CC(N)=O)C(N)=O)NC1=O` [bp3-39] (H-SEEVCWPVAEWYLCN-NH2; disulfide 5-14 (inferred); N-terminus assumed), the “IGF-I Inhibition IC50 (mut)/IC50 (wt)” value is listed as 0.33. Further, the IC50 under setting [1] was 0.66 µM.
The corresponding values for `CC(=O)N[C@@H](CO)C(=O)N[C@@H](CCC(=O)O)C(=O)N[C@@H](CCC(=O)O)C(=O)N[C@H](C(=O)N[C@H]1CSSC[C@@H](C(=O)N[C@@H](CC(N)=O)C(N)=O)NC(=O)[C@H](CC(C)C)NC(=O)[C@H](Cc2ccc(O)cc2)NC(=O)[C@H](Cc2c[nH]c3ccccc23)NC(=O)[C@H](CCC(=O)O)NC(=O)[C@H](C)NC(=O)[C@H](C(C)C)NC(=O)[C@@H]2CCCN2C(=O)[C@H](Cc2c[nH]c3ccccc23)NC1=O)C(C)C` [bp3-40] (Ac-SEEVCWPVAEWYLCN-NH2; disulfide 5-14 (inferred)) are 0.33 and 0.66 µM.
Regarding `CC(C)C[C@@H]1NC(=O)[C@H](Cc2ccc(O)cc2)NC(=O)[C@H](Cc2c[nH]c3ccccc23)NC(=O)[C@H](CCC(=O)O)NC(=O)[C@H](C)NC(=O)[C@H](C(C)C)NC(=O)[C@@H]2CCCN2C(=O)[C@H](Cc2c[nH]c3ccccc23)NC(=O)[C@@H](NC(=O)[C@@H](NC(=O)[C@H](CCC(=O)O)NC(=O)[C@H](CCC(=O)O)NC(=O)[C@H](CO)NC(=O)[C@H](C)N)C(C)C)CSSC[C@@H](C(=O)N[C@@H](CC(N)=O)C(=O)O)NC1=O` [bp3-30] (H-ASEEVCWPVAEWYLCN-OH; disulfide 6-15; N-terminus and C-terminus assumed), the “IGF-I Inhibition IC50 (mut)/IC50 (wt)” value was found to be 2.8. In addition, the IC50 under setting [1] amounted to 5.6 µM.
Turning to `CSCC[C@@H]1NC(=O)[C@H](Cc2ccc(O)cc2)NC(=O)[C@@H]2CSSC[C@H](NC(=O)[C@H](CC(C)C)NC(=O)[C@@H]3CCCN3C1=O)C(=O)N[C@@H](CC(C)C)C(=O)N[C@H](C(=O)N[C@@H](Cc1ccc(O)cc1)C(=O)N[C@@H](CC(=O)O)C(=O)N[C@@H](CO)C(=O)N[C@@H](CC(=O)O)C(=O)O)CSSC[C@H](NC(=O)[C@H](CC(N)=O)NC(=O)[C@H](C)NC(=O)[C@@H](NC(=O)[C@@H](N)[C@@H](C)O)C(C)C)C(=O)N[C@@H](CC(=O)O)C(=O)N2` [BP08, TVANCDC*YMPLC*LCYDSD] (H-TVANCDCYMPLCLCYDSD-OH; disulfide 5-14, 7-12; N-terminus and C-terminus assumed), the IC50 worked out at 15 µM.
For the compound `CC(C)C[C@@H]1NC(=O)[C@H](Cc2ccc(O)cc2)NC(=O)[C@H](Cc2c[nH]c3ccccc23)NC(=O)[C@H](CCC(=O)O)NC(=O)[C@H](C)NC(=O)[C@H](C(C)C)NC(=O)[C@@H]2CCCN2C(=O)[C@H](Cc2c[nH]c3ccccc23)NC(=O)[C@@H](NC(=O)[C@@H](NC(=O)[C@H](CCC(=O)O)NC(=O)[C@@H](N)CCC(=O)O)C(C)C)CSSC[C@@H](C(=O)N[C@@H](CC(N)=O)C(=O)O)NC1=O` [bp3-28] (H-EEVCWPVAEWYLCN-OH; disulfide 4-13 (inferred); N-terminus and C-terminus assumed), the “IGF-I Inhibition IC50 (mut)/IC50 (wt)” value amounted to 2.7. Under setting [1], the IC50 is 5.4 µM.
As to `CC[C@H](C)[C@H](NC(=O)[C@H](Cc1ccc(O)cc1)NC(=O)[C@H](C)NC(=O)CNC(=O)[C@@H](NC(=O)[C@@H](N)CCCNC(=N)N)C(C)C)C(=O)N[C@@H](CO)C(=O)N[C@H]1CSSC[C@@H](C(=O)N[C@@H](Cc2c[nH]c3ccccc23)C(=O)N[C@H](C(=O)N[C@@H](CCC(=O)O)C(=O)N[C@@H](CC(=O)O)C(=O)N[C@@H](CC(C)C)C(=O)N[C@@H](CC(C)C)C(=O)N[C@@H](CC(=O)O)C(=O)NCC(N)=O)C(C)C)NC(=O)[C@H](CCC(=O)O)NC(=O)[C@H]([C@@H](C)O)NC(=O)[C@H](CCC(=O)O)NC(=O)[C@H](CO)NC1=O` [BP3-25] (H-RVGAYISCSETECWVEDLLDG-NH2; disulfide 8-13), under setting [2], the IC50 was above 1000 µM.
The compound `CSCC[C@H](NC(=O)[C@@H]1CSSC[C@H](NC(=O)[C@H](CC(=O)O)NC(=O)[C@@H](NC(=O)CNC(=O)[C@@H](N)[C@@H](C)O)C(C)C)C(=O)N[C@@H](CCC(N)=O)C(=O)N[C@H]2CSSC[C@H](NC(=O)[C@H](Cc3c[nH]cn3)NC(=O)[C@H](C(C)C)NC(=O)[C@@H]3CCCN3C(=O)CNC2=O)C(=O)N[C@@H](C(C)C)C(=O)N1)C(=O)N[C@@H](CC(=O)O)C(=O)N[C@@H](Cc1c[nH]c2ccccc12)C(=O)N[C@@H](C)C(=O)O` [BP06, TGVDCQC*GPVHC*VCMDWA] (H-TGVDCQCGPVHCVCMDWA-OH; disulfide 5-14, 7-12; N-terminus and C-terminus assumed) returned an IC50 of 5 µM.
For `CC[C@H](C)[C@H](NC(=O)CCC(=O)O)C(=O)N1CCC[C@H]1C(=O)N[C@H](C(=O)N[C@@H](CO)C(=O)N1CCC[C@H]1C(=O)N[C@@H](CC(=O)O)C(=O)N[C@@H](Cc1c[nH]c2ccccc12)C(=O)N[C@@H](Cc1ccccc1)C(=O)N[C@H](C(=O)N[C@@H](CS)C(=O)N[C@@H](CCC(N)=O)C(N)=O)C(C)C)C(C)C` [bp3-108] (Suc-IPVSPDWFVCQ-NH2), the IC50 (BIAcore competition, read-out: IC50, inhibition of IGFBP-3 binding to IGF-I) was 20 µM.
